Patent EP3318253B1, “COMPOSITIONS COMPRISING WNT INHIBITORS FOR TREATING CANCER” (Schmidt-Wolf, Ingo, priority 2010, dated 2012)
Where two headings read alike, the source gives them in different places.

Key:
PBMC = assay: Cell viability by DiOC6 staining, flow cytometry (normal control cells); format: cell-based, human
Protocol: (§1) PBMCs were isolated from blood of healthy donors by Ficoll-Hypaque density gradient centrifugation. Blood from buffy coats was mixed 1:2 with PBS/1% BSA (both PAA, Cölbe, Germany) and used for a ficoll gradient (LymphoPrep, PAA, Cölbe, Germany). After the centrifugation at 800 g for 30 minutes, the leukocyte layer was removed and transferred to new tubes. Subsequently, these cells were washed 3 times with PBS/1%BSA and re-suspended in fresh medium, consisting of RPMI medium (PAA, Cölbe, Germany) with 10% fetal calf serum (Invitrogen, Karlsruhe, Germany), 2.5% hepes buffer solution (PAA, Cölbe, Germany), and 1% penicillin/streptomycin (PAA, Cölbe, Germany).
(§2) Experiments were performed as reported recently.

MPC11 myeloma cells = conditions: 750 µg lenalidomide/day
Protocol: All animal experiments were done at least in duplicate with groups of 6 BALB/c mice (Charles River, Sulzfeld, Germany). 5x10^5 MCP11 murine myeloma cells were injected per mouse subcutaneously into Balb/c mice. […] Overall survival and tumor growth were measured. Tumor volume was calculated as follows: volume = length x width^2 x 0,52. Animals were killed when tumor volume reached 2000 mm^3.
• Figure 1. […] 1x10^5 cells were cultured with different compounds for three days. The concentration of thalidomide was U266 160µM for U266, RPMI 20µM for RPMI, and OPM 40µM for OPM cells. Then cell viability was measured by DIOC6 staining in flow cytometry. Results represent data from three, two and five separate experiments, respectively. Separate U266 n=3, RPMI n=2, OPM n=5 experiments. Data are shown as mean ± SD. • Figure 2. […] 1x10^5 OPM cells were cultured with the different compounds for three days. The concentration of lenalidomide was 12µM for OPM and 80µM for RPMI cells. Then cell viability was measured by DIOC6 staining in flow cytometry. Results represent data from eight and five OPM n=8, RPMI n=5 separate experiments, respectively. Data are shown as mean ± SD. • Figure 3. […] (A) Flow cytometric results. […] Western Blot analysis for the detection of β-catenin in myeloma cell lines under normal conditions. The myeloma cell lines RPMI 8226, KMS-18 and U266 were analyzed according to their β-catenin expression. • Figure 4B. […] As primary antibodies purified mouse anti-β-catenin and β-actin were used at a dilution of 1:1000 and as secondary antibody served goat anti-mouse IgG-HRP at a dilution of 1:5000. Finally, ECL reagent was utilized for detection. • Figure 4C. […] As primary antibodies Purified mouse anti-β-catenin and β-actin were used at a dilution of 1:1000 and as secondary antibody served goat anti-mouse IgG-HRP at a dilution of 1:5000. Finally, ECL reagent was utilized for detection. • Figure 5. […] Results represent data from two separate experiments. Data are shown as mean. • Figure 6. […] BALB/c mice were injected with 5x10^5 MPC11 myeloma cells subcutaneously. (A) Tumor growth and (B) overall survival were measured. Six animals were assayed per group.
All animal experiments were done at least in duplicate with groups of 6 BALB/c mice (Charles River, Sulzfeld, Germany). 5x10^5 MCP11 murine myeloma cells were injected per mouse subcutaneously into Balb/c mice. Mice were treated orally with 450µg/day CIC and 750 µg lenalidomide/day, respectively. Overall survival and tumor growth were measured. Tumor volume was calculated as follows: volume = length x width^2 x 0,52. Animals were killed when tumor volume reached 2000 mm^3.
• Figure 7. […] 1x10^5 cells were cultured with different compounds for three days. The concentration of thalidomide was U266 160µM for U266, RPMI 20µM for RPMI, and OPM 40µM for OPM cells. Then cell viability was measured by DIOC6 staining in flow cytometry. Results represent data from three, two and five separate experiments, respectively. Separate U266 n=3, RPMI n=2, OPM n=5 experiments. Data are shown as mean ± SD. • Figure 8. […] 1x10^5 OPM cells were cultured with the different compounds for three days. The concentration of lenalidomide was 12µM for OPM and 80µM for RPMI cells. Then cell viability was measured by DIOC6 staining in flow cytometry. Results represent data from eight and five OPM n=8, RPMI n=5 separate experiments, respectively. Data are shown as mean ± SD. • Figure 9. […] (A) Flow cytometric results. (B) We analyzed the effect of CIC on the Wnt/beta catenin pathway by Western blot. • Figure 10A. Western Blot analysis for the detection of β-catenin in myeloma cell lines under normal conditions. The myeloma cell lines RPMI 8226, KMS-18 and U266 were analyzed according to their β-catenin expression. • Figure 10B.

Wnt/beta catenin = conditions: Gen-plus drug library, 960 compounds; cited from earlier work
[1] = Cell viability by DiOC6 staining, flow cytometry (normal control cells); format: cell-based, human; conditions: human; control of PBMC; after 72 h; read-out: relative viability
Protocol: as §1, §2

[2] = system: Wnt/β-catenin target genes, including LEF-1, cyclin D1 and fibronectin; conditions: CLL cells exposed to EA; cited from earlier work
LEF-1 protein = LEF-1 protein (Homo sapiens, UniProt Q9UJU2); conditions: immune co-precipitation; destabilizes the LEF-1/β-catenin complex; cited from earlier work
Chain of LEF-1 protein (Q9UJU2 whole entry): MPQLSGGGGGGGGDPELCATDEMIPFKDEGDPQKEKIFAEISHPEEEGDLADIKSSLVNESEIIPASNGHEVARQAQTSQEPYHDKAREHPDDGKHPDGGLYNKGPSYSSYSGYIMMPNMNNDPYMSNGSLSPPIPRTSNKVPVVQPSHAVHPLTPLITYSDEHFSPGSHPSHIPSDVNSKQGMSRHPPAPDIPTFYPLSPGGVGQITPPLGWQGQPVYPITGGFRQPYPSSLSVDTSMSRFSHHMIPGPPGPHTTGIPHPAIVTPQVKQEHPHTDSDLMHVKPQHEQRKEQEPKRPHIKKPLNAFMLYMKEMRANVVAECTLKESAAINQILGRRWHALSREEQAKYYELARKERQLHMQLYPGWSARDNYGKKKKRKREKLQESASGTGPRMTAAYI

Cc1cc(C2CCCCC2)n(O)c(=O)c1 [CIC, ciclopirox olamine]
IC50 (PBMC; Homo sapiens, PBMC, after 72 h): > 400 µM
IC50 (PBMC; PBMC from healthy individuals, three days): > 400 µM
effect on normal PBMC and PBL (PBMC; normal PBMC and PBL, result in words): marginal
Tumor growth (MPC11 myeloma cells; oral 450µg/day CIC, compared to control mice): significantly reduced
identified in TOPflash reporter screen (Wnt/beta catenin): Wnt/beta catenin inhibitors

C=C(CC)C(=O)c1ccc(OCC(=O)O)c(Cl)c1Cl [EA, 2-[2,3-dichloro-4-(2-methylidenebutanoyl)phenoxy] acetic acid]
viability at 72 h, 30 µM [1]: 89.5 ± 3.1%
IC50 (PBMC; Homo sapiens, 72 h, PBMC from healthy individuals, three days): > 400 µM
expression of Wnt/β-catenin target genes [2]: decreased
binding to LEF-1 protein (LEF-1 protein): directly bind
Tumor growth (MPC11 myeloma cells; oral 450µg/day EA, compared to mice treated with lenalidomide alone, p<0.001): significantly reduced
identified in TOPflash reporter screen (Wnt/beta catenin): Wnt/beta catenin inhibitors
